Test results: patent publication EP0784620B1, “N-SUBSTITUTED PIPERIDINYL BICYCLIC BENZOATE DERIVATIVES” (JANSSEN PHARMACEUTICA N.V., priority 1994, dated 1996)
Where a name gives a salt, the structure may show the parent alone.

Tested on: ileum segments
Experiment: Guinea Pig Ileum Coaxial Stimulation
Type: tissue-based
Details: Cavia porcellus, 5 min; concentration of 3.10^-9 M; five minutes after administration versus before; submaximal electrical stimulation (80% of maximal response); read-out: increase of the amplitude of the twitch response
Experimental: Example 10 : Guinea Pig Ileum Coaxial Stimulation. Dunkin Hartley guinea-pigs of both sexes (body weight ± 500 g) were killed by decapitation. The ileum was removed and cleansed with warmed and oxygenated Krebs-Henseleit solution. Non-terminal, intact ileum segments, 4.5 cm long, of the guinea pig were vertically suspended with a preload of 1 g in 100 ml Krebs-Henseleit solution (37.5°C), gassed with a mixture of 95% O2 and 5% CO2. Transmural excitation was applied over the whole length of the ileum segment by means of two platinum electrodes, the anode threaded through the lumen of the ileum, the cathode in the bathing solution. The preparation was excited with single rectangular […] [1 msec; 0.1 Hz; submaximal response (current leading to 80% of maximal reponse)] from a progammable stimulator. Contractions were measured isometrically. During the stabilization period of 30 min, the strips were repeatedly stretched to a tension of 2g, in order to obtain a steady state tension of lg. Before starting the electrical stimulation, a cumulative dose response curve of acetylcholine was given. The electrical stimulation was started at supramaximal current to determine the maximal amplitude of the twitch responses. When these responses were stable, a submaximal stimulation to obtain 80% of the maximal responses was given until the twitch responses were constant for at least 15 min, whereafter a single dose of the test compound was added to the bath fluid. The amplitude of the twitch response five minutes after the administration of the test compound is compared with the amplitude before the administration of the test compound.

| Compound | activation at 0.003 µM [%] |
| --- | --- |
| CC1(C)CCc2c(N)c(Cl)cc(C(=O)OC3CCN(CC4CCCO4)CC3)c2O1 (racemic) [Compound 32, 1-[(tetrahydro-2-furanyl)methyl]-4-piperidinyl 5-amino-6-chloro-3,4-dihydro-2,2-dimethyl-2H-1-benzopyran-8-carboxylate] | > 5 |
| Nc1c(Cl)cc(C(=O)OC2CCN(CCCC3CCCO3)CC2)c2c1CCO2 (racemic) [Compound 35] | > 5 |
| Nc1c(Cl)cc(C(=O)OC2CCN(CCC3CCCO3)CC2)c2c1CCO2 (racemic) [Compound 36, 1-[2-(tetrahydro-2-furanyl)ethyl]-4-piperidinyl 4-amino-5-chloro-2,3-dihydro-7-benzofurancarboxylate] | > 5 |
| CCn1c(=O)n(CCN2CCC(OC(=O)c3cc(Cl)c(N)c4c3OCC4)CC2)c2ccccc21 [Compound 1] | > 5 |
| CC(C)OCCCN1CCC(OC(=O)c2cc(Cl)c(N)c3c2OCC3)CC1 [Compound 4, 1-[3-(1-methylethoxy)propyl]-4-piperidinyl 4-amino-5-chloro-2,3-dihydro-7-benzofurancarboxylate monohydrochloride] | > 5 |
| CC1(CCCN2CCC(OC(=O)c3cc(Cl)c(N)c4c3OCC4)CC2)OCCO1 [Compound 6, 1-[3-(2-methyl-1,3-dioxolan-2-yl)propyl]-4-piperidinyl 4-amino-5-chloro-2,3-dihydro-7-benzofurancarboxylate] | > 5 |
| Nc1c(Cl)cc(C(=O)OC2CCN(CCCn3nc(Cl)ccc3=O)CC2)c2c1CCO2 [Compound 7, 1-[3-(3-chloro-6-oxo-1(6H)-pyridazinyl)propyl]-4-piperidinyl 4-amino-5-chloro-2,3-dihydro-7-benzofurancarboxylate] | > 5 |
| CC(=O)CCCN1CCC(OC(=O)c2cc(Cl)c(N)c3c2OCC3)CC1 [Compound 8, 1-(4-oxopentyl)-4-piperidinyl 4-amino-5-chloro-2,3-dihydro-7-benzofurancarboxylate] | > 5 |
| Nc1c(Cl)cc(C(=O)OC2CCN(CCOCCO)CC2)c2c1CCO2 [Compound 14, 1-[2-(2-hydroxyethoxy)ethyl]-4-piperidinyl 4-amino-5-chloro-2,3-dihydro-7-benzo-furancarboxylate] | > 5 |
| COCCCN1CCC(OC(=O)c2cc(Cl)c(N)c3c2OCC3)CC1 [Compound 15, 1-(3-methoxypropyl)-4-piperidinyl 4-amino-5-chloro-2,3-dihydro-7-benzofuran-carboxylate] | > 5 |
| CCN1CCC(OC(=O)c2cc(Cl)c(N)c3c2OC(C)(C)C3)CC1 [Compound 16] | > 5 |
| CCOC(=O)CCCN1CCC(OC(=O)c2cc(Cl)c(N)c3c2OCC3)CC1 [Compound 33, ethyl 4-[[(4-amino-5-chloro-2,3-dihydro-7-benzofuranyl)carbonyl]oxy]-1-piperidinebutanoate] | > 5 |
| Nc1c(Cl)cc(C(=O)OC2CCN(CC3CC3)CC2)c2c1CCO2 [Compound 34] | > 5 |
| Cc1nccnc1NCCN1CCC(OC(=O)c2cc(Cl)c(N)c3c2OCC3)CC1 [Compound 39, 1-[2-[(3-methyl-2-pyrazinyl)amino]ethyl]-4-piperidinyl 4-amino-5-chloro-2,3-dihydro-7-benzofurancarboxylate] | > 5 |
| COC1CN(CCCC2(C)OCCO2)CCC1OC(=O)c1cc(Cl)c(N)c2c1OCC2 (stereo not shown) [Compound 46] | > 5 |
| COC1CN(CCCn2nc(Cl)ccc2=O)CCC1OC(=O)c1cc(Cl)c(N)c2c1OCC2 (stereo not shown) [Compound 50] | > 5 |
